According to patent US10894807B2 (Siemens Medical Solutions USA, Inc., priority 2011, dated 2021):

Molecular target: human PSMA (Homo sapiens (Human), UniProt Q04609)
Experiment: Enzymatic assay for in vitro evaluation of PSMA inhibitors (fluorescent assay of PSMA activity, NAAG substrate, OPA detection of glutamate)
Type: biochemical

Chain of human PSMA (Q04609 whole entry): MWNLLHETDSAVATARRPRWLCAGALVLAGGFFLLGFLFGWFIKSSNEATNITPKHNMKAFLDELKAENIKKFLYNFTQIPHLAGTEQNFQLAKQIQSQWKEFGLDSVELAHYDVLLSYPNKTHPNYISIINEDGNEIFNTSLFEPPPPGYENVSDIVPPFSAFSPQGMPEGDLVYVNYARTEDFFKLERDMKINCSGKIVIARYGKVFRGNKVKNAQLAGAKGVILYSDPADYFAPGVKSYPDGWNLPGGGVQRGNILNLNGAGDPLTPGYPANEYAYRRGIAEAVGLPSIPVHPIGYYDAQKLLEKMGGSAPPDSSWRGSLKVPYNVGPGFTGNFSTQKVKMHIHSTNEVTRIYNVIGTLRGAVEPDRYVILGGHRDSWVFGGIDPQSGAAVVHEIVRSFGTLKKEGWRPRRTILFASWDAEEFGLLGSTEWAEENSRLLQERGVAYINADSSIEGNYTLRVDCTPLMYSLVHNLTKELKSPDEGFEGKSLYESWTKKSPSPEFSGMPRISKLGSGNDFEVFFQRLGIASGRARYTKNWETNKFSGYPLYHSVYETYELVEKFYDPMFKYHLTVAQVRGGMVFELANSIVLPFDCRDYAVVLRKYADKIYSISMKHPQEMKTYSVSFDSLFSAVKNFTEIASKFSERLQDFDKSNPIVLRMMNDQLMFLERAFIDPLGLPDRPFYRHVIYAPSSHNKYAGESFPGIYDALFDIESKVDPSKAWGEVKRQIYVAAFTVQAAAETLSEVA

Row | Structure (SMILES) | PSMA Blkg % (10 μM) (compound at 10 μM) [%] | Ki [nM] | PSMA Blkg % (10 μM) [%]
1 | O=C(O)CC[C@H](NC(=O)N[C@@H](CCCCn1cc(CCCF)nn1)C(=O)O)C(=O)O [P188, (S)-2-(3-((S)-1-Carboxy-5-(4-(3-fluoropropyl)-1H-1,2,3-triazol-1-yl)pentyl)ureido)-pentanedioic Acid] | 99 | 6.6 | –
2 | O=C(O)C(Cn1cc(CCCF)nn1)CP(=O)(O)O (stereo not shown) [P189, 3-(4-(3-Fluoropropyl)-1H-1,2,3-triazol-1-yl)-2-(phosphonomethyl)propanoic Acid] | – | > 688 | –
3 | O=C(O)C(Cn1ccnn1)CP(=O)(O)O (stereo not shown) [P190, 2-((1H-1,2,3-Triazol-1-yl)methyl)-3-phosphonopropanoic Acid] | – | 188 | –
4 | O=C(O)CCC(CP(=O)(O)OCCOCCOCCOCCn1cc(CCCF)nn1)C(=O)O (stereo not shown) [P193, 2-(((2-(2-(2-(2-(4-(3-Fluoropropyl)-1H-1,2,3-triazol-1-yl)ethoxy)ethoxy)ethoxy)ethoxy)(hydroxy)phosphoryl)methyl)pentanedioic Acid] | – | – | 0
5 | O=C(O)CC[C@H](NC(=O)N[C@@H](CCCCNC(=O)[C@H]1O[C@@H](CNC(=O)CCc2ccc(-n3cc(CCCF)nn3)cc2)[C@H](O)[C@@H](O)[C@H]1O)C(=O)O)C(=O)O [P194, (S)-2-(3-((S)-1-Carboxy-5-((2S,3R,4R,5R,6S)-6-((3-(4-(4-(3-fluoropropyl)-1H-1,2,3-triazol-1-yl)phenyl)propanamido)methyl)-3,4,5-trihydroxytetrahydro-2H-pyran-2-carboxamido)pentyl)ureido)pentanedioic Acid] | – | 69 | 96
6 | CC(=O)N(CCF)CC(CP(=O)(O)O)C(=O)O.O=C(O)C(F)(F)F (stereo not shown) [P196, 3-(N-(2-Fluoroethyl)acetamido)-2-(phosphonomethyl)propanoic Acid] | – | – | 27
7 | O=C(O)CCC(CP(=O)(O)NCCc1ccccc1)C(=O)O (stereo not shown) [P197, 2-((Hydroxy(phenethylamino)phosphoryl)methyl)pentanedioic Acid] | – | > 3000 | 22
8 | CC(C)(C)OC(=O)N1CCC[C@H]1COP(=O)(O)CC(CCC(=O)O)C(=O)O (stereo partly drawn) [P201, 2-(((((S)-1-(tert-butoxycarbonyl)pyrrolidin-2-yl)methoxy)(hydroxy)phosphoryl)methyl)-pentanedioic Acid] | – | > 300 | 83
9 | O=C(O)CC[C@H](NC(=O)N[C@@H](Cc1ccc(OCCOCCOCCn2cc(CCCF)nn2)cc1)C(=O)O)C(=O)O [P203, (S)-2-(3-((S)-1-Carboxy-2-(4-(2-(2-(2-(4-(3-fluoropropyl)-1H-1,2,3-triazol-1-yl)ethoxy)ethoxy)ethoxy)phenyl)ethyl)ureido)pentanedioic Acid] | – | 41 | 97
10 | O=C(O)CCC(CP(=O)(O)OC[C@@H]1CCCN1C(=O)CCc1ccc(-n2cc(CCCF)nn2)cc1)C(=O)O (stereo partly drawn) [P206, 2-(((((S)-1-(3-(4-(4-(3-Fluoropropyl)-1H-1,2,3-triazol-1-yl)phenyl)propanoyl)pyrrolidin-2-yl)methoxy)(hydroxy)phosphoryl)methyl)pentanedioic Acid] | – | – | 81
11 | O=C(O)CCC(CP(=O)(O)OC[C@@H]1CCCN1C(=O)CCCc1ccc(-n2cc(CCCF)nn2)cc1)C(=O)O (stereo partly drawn) [P207, 2-(((((S)-1-(4-(4-(4-(3-Fluoropropyl)-1H-1,2,3-triazol-1-yl)phenyl)butanoyl)pyrrolidin-2-yl)methoxy)(hydroxy)phosphoryl)methyl)pentanedioic Acid] | – | 18.8 | 96

Next, values leading:

Row | PSMA Blkg % (10 μM) (compound at 10 μM) [%] | Ki [nM] | PSMA Blkg % (10 μM) [%] | Structure (SMILES)
12 | 85 | – | – | CC(F)C(=O)Nc1ccc(C(=O)NCCCC[C@H](NC(=O)N(O)[C@@H](CCC(=O)O)C(=O)O)C(=O)O)cc1 (stereo partly drawn) [P186, (S)-2-(3-((S)-1-Carboxy-5-(4-(2-fluoropropanamido)benzamido)pentyl)-1-hydroxyureido)pentanedioic Acid]
13 | – | – | 78 | CN(C(=O)N[C@@H](CCC(=O)O)C(=O)O)[C@@H](Cc1ccc(NC(=O)CCCn2cc(CCCF)nn2)cc1)C(=O)O [P191, (S)-2-(3-((S)-1-Carboxy-2-(4-(4-(4-(3-fluoropropyl)-1H-1,2,3-triazol-1-yl)-butanamido)phenyl)-ethyl)-3-methylureido)pentanedioic Acid]
14 | – | – | 29 | O=C(O)Cn1cc(C[C@H](NC(=O)N[C@@H](CCCCNC(=O)OCc2ccccc2)C(=O)O)C(=O)O)nn1 [P192, (9S,13S)-9-Carboxy-13-((1-(carboxymethyl)-1H-1,2,3-triazol-4-yl)methyl)-3,11-dioxo-1-phenyl-2-oxa-4,10,12-triazatetradecan-14-oic Acid]
15 | – | 66 | 96 | O=C(O)CC[C@H](NC(=O)N[C@@H](Cc1ccc(OCCn2cc(CCCF)nn2)cc1)C(=O)O)C(=O)O [P195, (S)-2-(3-((S)-1-Carboxy-2-(4-(2-(4-(3-fluoropropyl)-1H-1,2,3-triazol-1-yl)ethoxy)phenyl)ethyl)ureido)pentanedioic Acid]
16 | – | – | 14 | O=C(O)CCC(Nc1c(NC(CCC(=O)O)C(=O)O)c(=O)c1=O)C(=O)O (stereo not shown) [P198, 2,2′-[(3,4-Dioxocyclobut-1-ene-1,2-diyl)bis(azanediyl)]dipentanedioic Acid]
17 | – | > 188 | 82 | O=C(O)CC[C@H](NC(=O)C[C@@H](NC(=O)OCC1c2ccccc2-c2ccccc21)C(=O)O)C(=O)O [P199, (S)-2-[(R)-((((9H-Fluoren-9-yl)methoxy)carbonyl)amino)-3-carboxypropanamido]pentanedioic Acid]
18 | – | < 0.3 | 95 | O=C(O)CC[C@H](NC(=O)N[C@@H](CCCCNC(=S)Nc1ccc(-n2cc(CCCF)nn2)cc1)C(=O)O)C(=O)O [P200, (S)-2-(3-((S)-1-Carboxy-5-(3-(4-(4-(3-fluoropropyl)-1H-1,2,3-triazol-1-yl)phenyl)thioureido)pentyl)-ureido)pentanedioic Acid]
19 | – | 94 | 97 | O=C(O)CC[C@H](NC(=O)NC(Cc1ccc(OCCn2cc(CCCF)nn2)cc1)C(=O)O)C(=O)O (stereo partly drawn) [P202, (2S)-2-(3-(1-Carboxy-2-(4-(2-(4-(3-fluoropropyl)-1H-1,2,3-triazol-1-yl)ethoxy)phenyl)ethyl)ureido)pentanedioic Acid]
20 | – | 6.9 | 98 | O=C(O)CC[C@H](NC(=O)N[C@@H](COCc1ccccc1)C(=O)O)C(=O)O [P204, (S)-2-(3-((S)-2-(Benzyloxy)-1-carboxyethyl)ureido)pentanedioic Acid]
21 | – | – | 79 | O=C(O)CCC(CP(=O)(O)OC[C@@H]1CCCN1C(=O)Cc1ccccc1)C(=O)O (stereo partly drawn) [P205, 2-((Hydroxy(((S)-1-(2-phenylacetyl)pyrrolidin-2-yl)methoxy)phosphoryl)methyl)pentanedioic Acid]
22 | – | – | 75 | O=C(O)CC[C@H](NC(=O)C[C@@H](NC(=O)CCCNC(=O)OCc1ccccc1)C(=O)O)C(=O)O [P208, (10R,14S)-3,8,12-Trioxo-1-phenyl-2-oxa-4,9,13-triazahexadecane-10,14,16-tricarboxylic Acid]
23 | – | – | 44 | O=C(O)CC[C@H](NC(=O)C[C@@H](NC(=O)CCCCCNC(=O)OCc1ccccc1)C(=O)O)C(=O)O [P209, (12R,16S)-3,10,14-Trioxo-1-phenyl-2-oxa-4,11,15-triazaoctadecane-12,16,18-tricarboxylic Acid]
